Drawing on PubChem BioAssay (NCI), this text covers GI50 and TGI for 9 compounds.

Test systems include SK-MEL-2 melanoma; HCC-2998 colon; PC-3 prostate; UACC-257 melanoma; NCI-H460 lung; UO-31 renal; KM12 colon; EKVX NSCLC; OVCAR-8 ovarian; SNB-19 CNS.
What all share (assay): inhibition of tumour cell growth, NCI panel, 48 h

Where “and” joins values, the source holds several entries; their conditions need not be identical. Equal values may be shown once.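 Dose response: 5 concentrations. Exposure: 48 h. Format: 96-well plates. Endpoint: linear interpolation; highest concentration if not reached. GI50 is the concentration that inhibits growth by half. Definition used: TGI = concentration required for complete inhibition of growth.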

Regarding `CCCN1CCN(c2ccc3nc(-c4ccc5nc(-c6cc(OC)ccc6OC)[nH]c5c4)[nH]c3c2)CC1`, the GI50 in the experiment with SK-MEL-2 melanoma is 19.7 µM; with HCC-2998 colon, 1.8 µM; in the experiment with PC-3 prostate it was 1.75 µM; with UACC-257 melanoma, 20 µM; in the experiment on NCI-H460 lung, 1.91 µM; in the experiment on UO-31 renal, 14.6 µM. Moreover, the GI50 is 1.86 µM in the experiment on KM12 colon and 1.81 µM with EKVX NSCLC. Besides, the TGI with SK-MEL-2 melanoma worked out at 37.2 µM; with HCC-2998 colon, 3.25 µM; in the experiment with PC-3 prostate, 4.04 µM; in the experiment with UACC-257 melanoma it was 39.2 µM; in the experiment on NCI-H460 lung, 3.56 µM; in the experiment with UO-31 renal, 29.3 µM. The TGI amounted to 3.46 µM in the experiment with KM12 colon and 3.35 µM in the experiment on EKVX NSCLC.
Consider `COc1cc2cc(C(=O)Nc3cc(N)c4ccccc4c3CCCl)[nH]c2c(OC)c1OC`, for which the GI50 with OVCAR-8 ovarian is 0.0191 µM; in the experiment with SK-MEL-2 melanoma it was 0.0895 µM; in the experiment with HCC-2998 colon it was 0.00922 µM; with PC-3 prostate, 0.0252 µM; with NCI-H460 lung it was 0.00913 µM; in the experiment on SNB-19 CNS, 0.122 µM. For the same compound, the values for the GI50 in the experiment with UO-31 renal, with KM12 colon and in the experiment on EKVX NSCLC were 0.0353 µM, 0.0411 µM and 0.0993 µM, respectively. In addition, the TGI in the experiment with OVCAR-8 ovarian was 0.841 µM; with SK-MEL-2 melanoma it was 0.174 µM; in the experiment on HCC-2998 colon it was 0.034 µM; in the experiment on PC-3 prostate, 1.59 µM; with NCI-H460 lung it was 0.0396 µM; with SNB-19 CNS, > 10.2 µM. Besides, the TGI in the experiment on UO-31 renal was 41.2 µM; with KM12 colon it was 0.667 µM; in the experiment with EKVX NSCLC, 0.517 µM.
As to `CN1CCCCCC(=N\O)/C(=N/O)CCCCC1`, the TGI in the experiment with OVCAR-8 ovarian, with PC-3 prostate, in the experiment with UACC-257 melanoma, in the experiment on NCI-H460 lung, in the experiment with SNB-19 CNS and in the experiment with UO-31 renal was > 100 µM in each case. The TGI in the experiment with KM12 colon and with EKVX NSCLC was > 100 µM each time.
Take `O=CN1N=C(c2ccc(Cl)cc2)CC1c1cccc(Nc2ccnc3cc(Cl)ccc23)c1` (centres undefined): the GI50 with OVCAR-8 ovarian is 1.92 µM; in the experiment on HCC-2998 colon it was 3.12 µM; with PC-3 prostate, 1.69 µM; in the experiment on UACC-257 melanoma, 1.47 µM; in the experiment with NCI-H460 lung it was 1.86 µM; with SNB-19 CNS it was 4.19 µM. For the same compound, the GI50 in the experiment on UO-31 renal is 1.7 µM; with KM12 colon, 1.22 µM; with EKVX NSCLC, 1.59 µM. The TGI in the experiment with OVCAR-8 ovarian was 29.1 µM; in the experiment with HCC-2998 colon it was 35.3 µM; with PC-3 prostate it was > 100 µM; in the experiment with UACC-257 melanoma, 20.9 µM; with NCI-H460 lung, 11.9 µM; in the experiment with SNB-19 CNS it was > 100 µM. Moreover, the TGI in the experiment with UO-31 renal is > 100 µM; with KM12 colon it was 76.5 µM; in the experiment with EKVX NSCLC, > 100 µM.
Take `Cc1cccc(Cl)c1NC(=O)/C=C/c1ccccc1`: the TGI in the experiment with OVCAR-8 ovarian, in the experiment with SK-MEL-2 melanoma, with HCC-2998 colon, in the experiment with PC-3 prostate, in the experiment on UACC-257 melanoma and in the experiment with NCI-H460 lung was > 100 µM throughout. Also, the TGI in the experiment on SNB-19 CNS, with KM12 colon and in the experiment on EKVX NSCLC was > 100 µM each time.
For the compound `O=C([O][Hg][CH2]C1COCC([CH2][Hg][O]C(=O)c2ccccc2)O1)c1ccccc1` (centres undefined), the GI50 in the experiment on OVCAR-8 ovarian was 2.03 µM; with SK-MEL-2 melanoma, 13.2 µM; in the experiment with PC-3 prostate it was 15.9 µM; with UACC-257 melanoma it was 1.45 µM; with NCI-H460 lung, 20 µM; in the experiment with SNB-19 CNS it was 19.2 µM. In addition, the GI50 in the experiment on UO-31 renal is 1.82 µM; with KM12 colon, 16.6 µM; with EKVX NSCLC, 19.6 µM. Moreover, the TGI in the experiment with OVCAR-8 ovarian was 4.62 µM; in the experiment on SK-MEL-2 melanoma, 29.6 µM; in the experiment with PC-3 prostate, 32.4 µM; in the experiment on UACC-257 melanoma it was 2.85 µM; with NCI-H460 lung, 42.5 µM; in the experiment on SNB-19 CNS it was 40 µM. In addition, the figures for the TGI in the experiment on UO-31 renal, with KM12 colon and in the experiment with EKVX NSCLC were 3.39 µM, 31.5 µM and 37.4 µM, respectively.
For the compound `COc1ccc2c(c1)OC1=C(C(=O)OC1)C2c1cc(OC)c(OC)c(OC)c1` (centres undefined), the GI50 in the experiment with OVCAR-8 ovarian was 0.709 µM; in the experiment with SK-MEL-2 melanoma, 0.518 µM; in the experiment with HCC-2998 colon, 1.27 µM; with PC-3 prostate, 0.391 µM; in the experiment with NCI-H460 lung, 0.359 µM; in the experiment on SNB-19 CNS, 0.58 µM. Further, the GI50 was 0.961 µM in the experiment with UO-31 renal and 0.396 µM with KM12 colon. Also, the TGI is > 100 µM with OVCAR-8 ovarian; > 100 µM in the experiment with SK-MEL-2 melanoma; > 100 µM in the experiment on HCC-2998 colon; > 100 µM with PC-3 prostate; > 81.2 µM in the experiment with NCI-H460 lung; > 100 µM in the experiment on SNB-19 CNS. The results for the TGI in the experiment on UO-31 renal, in the experiment on KM12 colon and in the experiment with EKVX NSCLC were > 100 µM, > 89.6 µM and > 100 µM, respectively.
With `CC[Si](CC)(CC)OC[C@]1([C@@H]2COC(C)(C)O2)CC=CC(=O)O1`, the GI50 was 26.4 µM with OVCAR-8 ovarian; 41.1 µM in the experiment with SK-MEL-2 melanoma; 41.5 µM in the experiment on PC-3 prostate; 32.2 µM in the experiment with UACC-257 melanoma; 33.9 µM with NCI-H460 lung; 34.7 µM with SNB-19 CNS. Also, the GI50 in the experiment on UO-31 renal is 34.8 µM; with KM12 colon it was 34.3 µM; in the experiment with EKVX NSCLC, 31.5 µM. For the same compound, the TGI with OVCAR-8 ovarian was 91.8 µM; in the experiment on SK-MEL-2 melanoma, > 100 µM; in the experiment with PC-3 prostate it was > 100 µM; in the experiment on UACC-257 melanoma it was > 100 µM; in the experiment with NCI-H460 lung, > 100 µM; in the experiment on SNB-19 CNS it was > 100 µM. For the same compound, the TGI in the experiment on UO-31 renal, with KM12 colon and in the experiment on EKVX NSCLC was > 100 µM throughout.
`Nc1cc(-c2cccc(OC(F)(F)F)c2)nc2ccc(N3CCCC3)cc12`: the GI50 in the experiment with OVCAR-8 ovarian is 0.0547 µM and 0.0497 µM and 0.0459 µM; in the experiment on SK-MEL-2 melanoma, 0.4 µM and 0.0887 µM and 0.787 µM; with HCC-2998 colon, 0.037 µM and 0.0351 µM and 0.0371 µM; in the experiment on PC-3 prostate it was 0.0455 µM and 0.0429 µM and 0.0372 µM; in the experiment with NCI-H460 lung, 0.0354 µM and 0.0359 µM; in the experiment with SNB-19 CNS, 0.0458 µM and 0.0431 µM and 0.0437 µM. The GI50 in the experiment with UO-31 renal was 0.119 µM and 0.15 µM and 0.0758 µM; in the experiment on KM12 colon it was 0.0386 µM and 0.0333 µM and 0.0372 µM; in the experiment on EKVX NSCLC it was 0.222 µM and 0.362 µM and 0.38 µM. Also, the TGI was 32.6 µM and > 100 µM in the experiment with OVCAR-8 ovarian; 12.8 µM and > 100 µM with SK-MEL-2 melanoma; 26.9 µM and > 100 µM in the experiment on PC-3 prostate; 12.5 µM and > 100 µM in the experiment on NCI-H460 lung; 26.9 µM and > 100 µM with SNB-19 CNS; 17.7 µM and > 100 µM in the experiment with UO-31 renal. The TGI in the experiment on KM12 colon is 14.9 µM and > 100 µM; with EKVX NSCLC, > 100 µM.
